Laboratory results taken from US10131644B2, “Aryl sultam derivatives as RORc modulators” (Genentech, Inc., priority 2014, dated 2018).

These compounds were tested against T1, RORc (Homo sapiens, UniProt P51449) (assay: In vitro RORc ligand binding assay (25-[3H]hydroxycholesterol displacement)). Conditions: IC50, IC50 values for RORc; unit inferred.
T1 sequence (P51449 269-508 limits assumed): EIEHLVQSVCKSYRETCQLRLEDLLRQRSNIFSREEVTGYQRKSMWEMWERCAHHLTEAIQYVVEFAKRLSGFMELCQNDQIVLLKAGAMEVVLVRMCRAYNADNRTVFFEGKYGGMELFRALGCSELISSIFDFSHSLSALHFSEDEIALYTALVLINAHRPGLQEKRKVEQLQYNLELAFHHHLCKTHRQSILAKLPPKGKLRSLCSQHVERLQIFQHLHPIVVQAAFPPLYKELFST
Procedure: This assay was used to determine a compound's potency in inhibiting activity of RORc by determining, Kiapp, IC50, or percent inhibition values.
On day of the assay, 100 uL of 0.05% CHAPS (in deionized H2O) was added to all wells of the GFB Unifilter plate and allowed soak for 1 h. A wash buffer of 50 mM HEPES (pH 7.4), 150 mM NaCl, and 5 mM MgCl2 was prepared to wash the filter plate. To prepare an assay buffer, BSA was added to the wash buffer to reach 0.01% and DTT was added to reach 1 mM.
The 20× compound stocks were diluted in DMSO with Assay Buffer 4-fold to reach 5× the final test concentration in 25% DMSO (10 uL compound+30 uL Assay Buffer). Solutions were mixed by aspiration several times with a pipette set on 50 uL volume. For the assay, 10 uL of 5× compound stock solutions in 25% DMSO were added to the assay plate in duplicate.
For two point screening, 10 mM stock compound solutions were diluted in DMSO to obtain 200 uM (20× the high test concentration) and then diluted 10-fold further to reach 20 uM (20× the low test concentration). The 20× stocks were diluted 4-fold with Assay Buffer (10 uL compound+30 uL Assay Buffer) to reach 5× the test concentrations (50 uM and 5 uM) and 10 uL were added to two assay plates for the duplicate wells. With each concentration tested on 2 plates, each set of 80 compounds used 4 assay plates (1 uM and 10 uM, with n=2).
For 25-hydroxycholesterol in 25% DMSO/75% Assay Buffer; 10 uL per well was used for NSB samples. Wells for Total Binding and No Receptor sample determination contained 10 uL of 25% DMSO/75% Assay Buffer per well.
Add 20 uL to all wells to reach 6 nM final in the assay.
Stock receptor solution was diluted in assay buffer to obtain 1.5 ug/mL in Assay Buffer. 20 uL was added to all wells. For No R samples, 20 uL Assay Buffer was substituted for receptor solution.
Assay plates were 96-well polypropylene V-bottom plates. 10 uL of 5× compound in 25% DMSO/75% Assay Buffer was added to Test wells. 10 uL of 25% DMSO/75% Assay Buffer was added to Total Binding or No Receptor wells. 10 uL of 5 uM 25-hydroxycholesterol in 25% DMSO/75% Assay Buffer was added to NSB wells. […] 20 uL of 1.5 ug/mL RORc receptor was added to wells (or 40 uL Assay Buffer to No R wells). Following addition to the wells, the plates were incubated 3 h at 25° C.
Using a Packard Filtermate Harvester, the filter plate were washed 4 times following transfer of the incubated samples. Plates were dry-filtered completely (2 h at 50° C. or overnight at room temperature). 50 uL Microscint 0 was added to all wells and read on Topcount protocol Inverted.
For NSB wells, 1 uM 25-hydroxycholesterol was also present.

SMILES	IC50 [nM]
C[C@H]1CC[C@H](c2ccccc2)S(=O)(=O)N1Cc1ccc(C2(C#N)CC2)cc1F [Compound 109, 1-[3-fluoro-4-[[(3S,6R)-3-methyl-1,1-dioxo-6-phenyl-thiazinan-2-yl]methyl]phenyl]cyclopropanecarbonitrile]	116
C[C@H]1CC[C@H](c2ccccc2)S(=O)(=O)N1Cc1ccc(C2(OCC(=O)O)CCOCC2)cc1F [Compound 110, 2-[4-[3-fluoro-4-[[(3S,6R)-3-methyl-1,1-dioxo-6-phenyl-thiazinan-2-yl]methyl]phenyl]tetrahydropyran-4-yl]oxyacetic acid]	62.9
C[C@H]1CC[C@H](c2ccccc2)S(=O)(=O)N1Cc1ccc(C2(NC(=O)C(O)CO)CCOCC2)cc1F (stereo partly drawn) [Compound 111, N-[4-[3-fluoro-4-[[(3S,6R)-3-methyl-1,1-dioxo-6-phenyl-thiazinan-2-yl]methyl]phenyl]tetrahydropyran-4-yl]-2,3-dihydroxy-propanamide]	138
C[C@H]1CC[C@H](c2ccccc2)S(=O)(=O)N1Cc1ccc(C2(CO)CC2)cc1F [Compound 112, [1-[3-fluoro-4-[[(3S,6R)-3-methyl-1,1-dioxo-6-phenyl-thiazinan-2-yl]methyl]phenyl]cyclopropyl]methanol]	206
C[C@H]1CC[C@H](c2ccccc2)S(=O)(=O)N1Cc1ccc(C2(OCC(N)=O)CCOCC2)cc1F [Compound 113, 2-[4-[3-fluoro-4-[[(3S,6R)-3-methyl-1,1-dioxo-6-phenyl-thiazinan-2-yl]methyl]phenyl]tetrahydropyran-4-yl]oxyacetamide]	5
CCOC(=O)/C=C/C1(c2ccc(CN3[C@@H](C)CC[C@H](c4ccccc4)S3(=O)=O)c(F)c2)CC1 [Compound 114, ethyl (E)-3-[1-[3-fluoro-4-[[(3S,6R)-3-methyl-1,1-dioxo-6-phenyl-thiazinan-2-yl]methyl]phenyl]cyclopropyl]prop-2-enoate]	53.6
CCOC(=O)C[C@H](O)C1(c2ccc(CN3[C@@H](C)CC[C@H](c4ccccc4)S3(=O)=O)c(F)c2)CCOCC1 [Compound 115, ethyl (3S)-3-[4-[3-fluoro-4-[[(3S,6R)-3-methyl-1,1-dioxo-6-phenyl-thiazinan-2-yl]methyl]phenyl]tetrahydropyran-4-yl]-3-hydroxy-propanoate]	39.5
CCOC(=O)C[C@@H](O)C1(c2ccc(CN3[C@@H](C)CC[C@H](c4ccccc4)S3(=O)=O)c(F)c2)CCOCC1 [Compound 116, ethyl (3R)-3-[4-[3-fluoro-4-[[(3S,6R)-3-methyl-1,1-dioxo-6-phenyl-thiazinan-2-yl]methyl]phenyl]tetrahydropyran-4-yl]-3-hydroxy-propanoate]	12.2
C[C@H]1CC[C@H](c2ccccc2)S(=O)(=O)N1Cc1ccc(C2([C@@H](O)CCO)CCOCC2)cc1F [Compound 117, (1S)-1-[4-[3-fluoro-4-[[(3S,6R)-3-methyl-1,1-dioxo-6-phenyl-thiazinan-2-yl]methyl]phenyl]tetrahydropyran-4-yl]propane-1,3-diol]	35.2
C[C@H]1CC[C@H](c2ccccc2)S(=O)(=O)N1Cc1ccc(C2([C@H](O)CCO)CCOCC2)cc1F [Compound 118, (1R)-1-[4-[3-fluoro-4-[[(3S,6R)-3-methyl-1,1-dioxo-6-phenyl-thiazinan-2-yl]methyl]phenyl]tetrahydropyran-4-yl]propane-1,3-diol]	16.6
C[C@H]1CC[C@H](c2ccccc2)S(=O)(=O)N1Cc1ccc(C2(OC[C@@H](O)CO)CCOCC2)cc1F [Compound 119, (2S)-3-[4-[3-fluoro-4-[[(3S,6R)-3-methyl-1,1-dioxo-6-phenyl-thiazinan-2-yl]methyl]phenyl]tetrahydropyran-4-yl]oxypropane-1,2-diol]	27.4
COC(=O)C1(c2cc(F)c(CN3[C@@H](C)CC[C@H](c4ccccc4)S3(=O)=O)cc2F)CCC(=O)CC1 [Compound 120, methyl 1-[2,5-difluoro-4-[[(3S,6R)-3-methyl-1,1-dioxo-6-phenyl-thiazinan-2-yl]methyl]phenyl]-4-oxo-cyclohexanecarboxylate]	6.1
C[C@H]1CC[C@H](c2ccccc2)S(=O)(=O)N1Cc1ccc(C2(COCC(N)=O)CCOCC2)cc1F [Compound 121]	16
C[C@H]1CC[C@H](c2ccccc2)S(=O)(=O)N1Cc1cc(F)c(C2(C#N)CCOCC2)cc1F [Compound 122, 4-[2,5-difluoro-4-[[(3S,6R)-3-methyl-1,1-dioxo-6-phenyl-thiazinan-2-yl]methyl]phenyl]tetrahydropyran-4-carbonitrile]	26.8
C[C@H]1CC[C@H](c2ccccc2)S(=O)(=O)N1Cc1cc(F)c(C2(C#N)CC2)cc1F [Compound 123, 1-[2,5-difluoro-4-[[(3S,6R)-3-methyl-1,1-dioxo-6-phenyl-thiazinan-2-yl]methyl]phenyl]cyclopropanecarbonitrile]	22.7
COC(=O)C1(c2ccc(CN3[C@@H](C)CC[C@H](c4ccccc4)S3(=O)=O)c(F)c2)CCN(C(C)=O)CC1 [Compound 124, methyl 1-acetyl-4-[3-fluoro-4-[[(3S,6R)-3-methyl-1,1-dioxo-6-phenyl-thiazinan-2-yl]methyl]phenyl]piperidine-4-carboxylate]	13

SMILES	IC50 [nM]
C[C@H]1CC[C@H](c2ccccc2)S(=O)(=O)N1Cc1cc(F)c(C2(C(N)=O)CC2)cc1F [Compound 125, 1-[2,5-difluoro-4-[[(3S,6R)-3-methyl-1,1-dioxo-6-phenyl-thiazinan-2-yl]methyl]phenyl]cyclopropane-carboxamide]	346
C[C@H]1CC[C@H](c2ccccc2)S(=O)(=O)N1Cc1cc(F)c(C2(CO)CC2)cc1F [Compound 126, [1-[2,5-difluoro-4-[[(3S,6R)-3-methyl-1,1-dioxo-6-phenyl-thiazinan-2-yl]methyl]phenyl]cyclopropyl]methanol]	49.9
C[C@H]1CC[C@H](c2ccccc2)S(=O)(=O)N1Cc1cc(F)c(C2(COCC(N)=O)CC2)cc1F [Compound 127, 2-[[1-[2,5-difluoro-4-[[(3S,6R)-3-methyl-1,1-dioxo-6-phenyl-thiazinan-2-yl]methyl]phenyl]cyclopropyl]methoxy]acetamide]	20
C[C@H]1CC[C@H](c2ccccc2)S(=O)(=O)N1Cc1cc(F)c(C2(C(=O)NCC#N)CC2)cc1F [Compound 128, N-(cyanomethyl)-1-[2,5-difluoro-4-[[(3S,6R)-3-methyl-1,1-dioxo-6-phenyl-thiazinan-2-yl]methyl]phenyl]cyclopropane-carboxamide]	390
C[C@H]1CC[C@H](c2ccccc2)S(=O)(=O)N1Cc1cc(F)c(C2(CO)CCC(O)CC2)cc1F (stereo partly drawn) [Compound 129, 4-[2,5-difluoro-4-[[(3S,6R)-3-methyl-1,1-dioxo-6-phenyl-thiazinan-2-yl]methyl]phenyl]-4-(hydroxymethyl)cyclohexanol]	8.1
C[C@H]1CC[C@H](c2ccccc2)S(=O)(=O)N1Cc1cc(F)c(C2(CO)CCC(O)CC2)cc1F (stereo partly drawn) [Compound 130, 4-[2,5-difluoro-4-[[(3S,6R)-3-methyl-1,1-dioxo-6-phenyl-thiazinan-2-yl]methyl]phenyl]-4-(hydroxymethyl)cyclohexanol]	34.7
C[C@H]1CC[C@@H](c2ccccc2)S(=O)(=O)N1Cc1cc(F)c(C2(CO)CCC(O)CC2)cc1F (stereo partly shown) [Compound 131]	72.8
C[C@H]1CC[C@@H](c2ccccc2)S(=O)(=O)N1Cc1cc(F)c(C2(CO)CCC(O)CC2)cc1F (stereo partly shown) [Compound 132]	240
C[C@H]1CC[C@H](c2ccccc2)S(=O)(=O)N1Cc1cc(F)c(C2(CO)CCC(n3cnnc3)CC2)cc1F (stereo partly drawn) [Compound 133, [1-[2,5-difluoro-4-[[(3S,6R)-3-methyl-1,1-dioxo-6-phenyl-thiazinan-2-yl]methyl]phenyl]-4-(1,2,4-triazol-4-yl)cyclohexyl]methanol]	5.2
C[C@H]1CC[C@H](c2ccccc2)S(=O)(=O)N1Cc1cc(F)c(C2(CO)CCC(n3cnnc3)CC2)cc1F (stereo partly drawn) [Compound 134, [1-[2,5-difluoro-4-[[(3S,6R)-3-methyl-1,1-dioxo-6-phenyl-thiazinan-2-yl]methyl]phenyl]-4-(1,2,4-triazol-4-yl)cyclohexyl]methanol]	87.9
C[C@H]1CC[C@H](c2ccccc2)S(=O)(=O)N1Cc1cc(F)c(C2(OCC(=O)O)COC2)cc1F [Compound 135, 2-[3-[2,5-difluoro-4-[[(3S,6R)-3-methyl-1,1-dioxo-6-phenyl-thiazinan-2-yl]methyl]phenyl]oxetan-3-yl]oxyacetic acid]	27.2
CC(=O)N1CC(OCC(=O)O)(c2cc(F)c(CN3[C@@H](C)CC[C@H](c4ccccc4)S3(=O)=O)cc2F)C1 [Compound 136, 2-[1-acetyl-3-[2,5-difluoro-4-[[(3S,6R)-3-methyl-1,1-dioxo-6-phenyl-thiazinan-2-yl]methyl]phenyl]azetidin-3-yl]oxyacetic acid]	17.2
CC(=O)N1CCC(OCC(=O)O)(c2cc(F)c(CN3[C@@H](C)CC[C@H](c4ccccc4)S3(=O)=O)cc2F)CC1 [Compound 137, 2-[[1-acetyl-4-[2,5-difluoro-4-[[(3S,6R)-3-methyl-1,1-dioxo-6-phenyl-thiazinan-2-yl]methyl]phenyl]-4-piperidyl]oxy]acetic acid]	17.9
C[C@H]1CC[C@H](c2ccccc2)S(=O)(=O)N1Cc1cc(F)c(C2(OCC(N)=O)COC2)cc1F [Compound 138, 2-[3-[2,5-difluoro-4-[[(3S,6R)-3-methyl-1,1-dioxo-6-phenyl-thiazinan-2-yl]methyl]phenyl]oxetan-3-yl]oxyacetamide]	2.6
C[C@H]1CC[C@H](c2ccccc2)S(=O)(=O)N1Cc1cc(F)c(C2(CCC(N)=O)CC2)cc1F [Compound 139, 3-[1-[2,5-difluoro-4-[[(3S,6R)-3-methyl-1,1-dioxo-6-phenyl-thiazinan-2-yl]methyl]phenyl]cyclopropyl]propanamide]	23.7
